Test results published in patent US20250127933A1, “Method of verifying effectiveness and stability of linker in Drug Delivery system and Structure therefor” (INDUSTRY-ACADEMIC COOPERATION FOUNDATION OF SUNCHON …, priority 2023, published 2025).

Tests used:
[1] = test system: Leucine aminopeptidase (LAP); assay: Enzymatic kinetic study of LAP reaction of activatable fluorescent probes; type: biochemical, porcine; conditions: for Fluorophore released in LAP reaction (% yield) / Fluorophore released in LAP reaction (concentration) / kinetics of LAP reaction (time-dependent fluorescence emission): 1 μM probe, 10 μg/mL LAP, PBS pH 7.4, 37° C., 80 min; for Fluorophore released in LAP reaction (concentration): calculated from fluorophore calibration curves; for LAP response / fluorophore release (in words): LAP reaction, enzymatic study
Description: All spectroscopic readings were measured with BioTek Synergy™ H1 spectrophotometer, using 96 well microplate. A parent stock solution of probes was dissolved in DMSO to obtain 10 mM. Leucine aminopeptidase was dissolved in deionized water to obtain 1 mg/mL. All spectra measurements were carried out in PBS buffer solution (PBS buffer, 10 mM, pH 7.4, 37° C. The final volume in 96 well microplate was adjusted to 200 μL. RPMI 1640 was obtained from Thermo Scientific (Waltham, MA, USA). Bestatin hydrochloride (LAP inhibitor), DMSO and 2-mercaptoethanol were purchased from Sigma Aldrich (St. Louis, Mo, USA).
The kinetic study for LAP reaction was performed by incubation of 2 μg of LAP ([…]) with 1 μM probe in PBS buffer (10 mM, pH 7.4). The plate was incubated at 37° C. for 80 min with continuous shaking, and the emission spectra were recorded at the corresponding wavelength over time. A solution of LAP (2 μg/200 μL) was pretreated with bestatin (0, 1, 10, 50 and 100 μM) in PBS (10 mM, pH 7.4) at 37° C. for 30 min, and then 1 μM of probe was added. The mixture was incubated at 37° C., and the fluorescence was recorded on Synergy™ H1 using a 96-well microplate.
All reagents and solvents were obtained from commercial sources Sigma-Aldrich Chemical Co., Combi-Block, Tokyo Chemical Industries, Daejung Chemicals, and Alfa Aesar and used without purification. Anhydrous solvents were purchased from Sigma-Aldrich and used under dry nitrogen atmosphere. Ultrapure water was obtained from a water ultra-purification system. Completion of reaction was confirmed by thin layer chromatography (TLC) on Kiesegel 60F254 from Merck and all synthesized compounds were purified by flash column chromatography using ZEOprep 60 (40-63) […] silica gel from ZEOCHEM. ^1H and ^13C NMR spectra were measured on JEOL JNMECZ400s/L1 (400 MHZ) and CDCl3 or DMSO-d6 was used as the NMR solvents. The chemical shifts were quoted in parts per million (ppm) and the coupling constant (J) were reported in hertz unit (Hz). Chemical shifts (in ppm) were referenced to tetramethylsilane (δ=0 ppm) in CDCl3 as an internal standard. ^13C NMR spectra were reported in ppm referenced to the center line of the triplet at 77.0 ppm for CDCl3 or 39.5 ppm for DMSO-d6. All in vitro enzyme assays were performed by taking the absorbance and emission on Synergy™ H1 microplate reader from BioTek. Leucine aminopeptidase from porcine kidney and other enzymes were purchased from Sigma-Aldrich.

[2] = pH-dependent stability test; type: physicochemical; conditions: 1 μM probe, pH 2 to 12, 25° C.
Description: Thermal stability was evaluated by the incubation of 1 μM of the probe in PBS buffer (pH 7.4) at different temperatures ranging from 25 to 45° C. for 20 min and reading fluorescence at each temperature. The pH stability test was performed by the incubation with 1 μM probe in different pH buffers (2 to 13) at 25° C. and recording fluorescence at each pH.

[3] = test system: HepG2 cells; assay: Confocal live cell imaging in HepG2 cells; type: cell-based; conditions: 1 μM probe, LysoTracker Red DND-99, DAPI, HepG2 cells
Description: HepG2 cells were maintained in DMEM medium containing 10% FBS and 1% antibiotics in the 15 μ-plate 96 well black (ibidi, Germany). HepG2 cells were incubated with or without 500 μM of bestatin, LAP inhibitor, for 1 h and subsequently treated with 1 μM of probe and Lyso-Tracker™ Red (Thermo Scientific, USA) for 1 h. The treated cells were washed three times with PBS and treated with 10 μM of DAPI (Thermo Scientific, USA) for 2 h. Imaged were collected by Leica confocal microscopy (TCS SP5 AOBS/Tandem, Leica, Germany). Lyso-Tracker™ Red was excited by 514 nm and detected by 570-620 nm, compounds were excited by 476 nm and detected by 505-545 nm, DAPI was excited by 405 nm and detected by 420-470 nm.

[4] = Ex vivo plasma stability in mice serum; type: in vitro ADME, C57BL/6 mice; conditions: 10 μM probe; for % survival rate of probe in serum: C57BL/6 mice serum, 37° C.
Description: Animal was treated strictly according to the guidelines for laboratory animal care and use issued by the Sunchon National University Institutional Animal Care and Use Committee (SCNU IACUC). Female C57/BL6 mice (7 weeks old), weighing about 17-20 g, were purchased from Orientbio (Orientbio Inc., Seongnam, Korea). Blood was collected from the posterior orbital plexus in normal mice and centrifuged (5000 rpm, 4° C., 5 minutes) to obtain serum. The stability study was performed by incubation of the fluorescent probe (10 μM) or rhodol fluorophore (0.1, 0.3, 1, 3 and 10 μM) with serum at 37° C. . . . The fluorescence was detected on Synergy™ H1 microplate reader.

[5] = test system: Leucine aminopeptidase (LAP); assay: Enzymatic kinetic study of LAP reaction of activatable fluorescent probes; type: biochemical, porcine; conditions: 1 μM probe; LAP 1, 5, 10, 20, 50, 100 μg/mL; PBS pH 7.4, 80 min, 37° C.

| Compound | Fluorophore released in LAP reaction (% yield) [1] | Fluorophore released in LAP reaction (concentration) [1] | kinetics of LAP reaction (time-dependent fluorescence emission) [1] | further results |
| --- | --- | --- | --- | --- |
| CCN(CC)c1ccc2c(c1)Oc1cc(NC(=O)[C@@H](N)CC(C)C)ccc1C21OC(=O)c2ccccc21 (stereo partly drawn) [Probe 1, (2S)-2-Amino-N-(3′-(diethylamino)-3-oxo-3H-spiro[isobenzofuran-1,9′-xanthen]-6′-yl)-4-methylpentanamide] | 66.7% | ~0.667 µM | – | pH-dependent stability (fluorescence of fluorophore released by degradation) [2]: increased fluorescence emission in the pH range of 7-9 |
| COc1ccc2c(c1)Oc1cc(NC(=O)[C@@H](N)CC(C)C)ccc1C21OC(=O)c2ccccc21 (stereo partly drawn) [Probe 2, (2S)-2-Amino-N-(3′-methoxy-3-oxo-3H-spiro[isobenzofuran-1,9′-xanthen]-6′-yl)-4-methylpentanamide] | 89.7% | ~0.897 µM | faster kinetics than those of the corresponding P2 and P3 probes | lysosomal colocalization in confocal live cell imaging [3]: colocalized into lysosomes with LysoTracker; time-dependent fluorescence emission in serum ([4]; C57/BL6 mice serum, 48 h): rapidly increased; % survival rate of probe in serum ([4]; 4 h p.i.): 45%; % survival rate of probe in serum ([4]; 48 h): 39%; pH-dependent stability (fluorescence of fluorophore released by degradation) [2]: increased fluorescence emission in the pH range of 7-9; LAP response at various concentrations of LAP [5]: nearly maximal responses at 10 μg/mL of LAP |
| CCN(CC)c1ccc2c(c1)Oc1cc(NC(=O)OCc3ccc(NC(=O)[C@@H](N)CC(C)C)cc3)ccc1C21OC(=O)c2ccccc21 (stereo partly drawn) [Probe 3, 4-((S)-2-Amino-4-methylpentanamido)benzyl (3′-(diethylamino)-3-oxo-3H-spiro[isobenzofuran-1,9′-xanthen]-6′-yl)carbamate] | – | ~0.987 µM | – | Fluorophore released in LAP reaction (% yield) ([1]; Rhoda-P2): 98.7%; Fluorophore released in LAP reaction (% yield) ([1]; listed as Rhoda-P2): 74.7%; pH-dependent stability (fluorescence of fluorophore released by degradation) [2]: no change in fluorescence emission according to the change in pH |
| CCN(CC)c1ccc2c(c1)Oc1cc(OCc3ccc(NC(=O)[C@@H](N)CC(C)C)cc3)ccc1C21OC(=O)c2ccccc21 (stereo partly drawn) [Probe 5, (2S)-2-Amino-N-(4-(((3′-(diethylamino)-3-oxo-3H-spiro[isobenzofuran-1,9′-xanthen]-6′-yl)oxy)methyl)phenyl)-4-methylpentanamide] | 19.1% | ~0.191 µM | notably slower kinetics | LAP response / fluorophore release (in words) [1]: lower responses |
| COc1ccc2c(c1)Oc1cc(OCc3ccc(NC(=O)[C@@H](N)CC(C)C)cc3)ccc1C21OC(=O)c2ccccc21 (stereo partly drawn) [Probe 6, (2S)-2-Amino-N-(4-(((3′-methoxy-3-oxo-3H-spiro[isobenzofuran-1,9′-xanthen]-6′-yl)oxy)methyl)phenyl)-4-methylpentanamide] | 37.3% | ~0.373 µM | notably slower kinetics | LAP response / fluorophore release (in words) [1]: lower responses; LAP response at various concentrations of LAP [5]: nearly maximal responses at 10 μg/mL of LAP |
| CCN(CC)c1ccc2c(c1)Oc1cc(NC(=O)[C@@H](N)CC(C)C)ccc1C21OCc2ccccc21 (stereo partly drawn) [Probe 7, (2S)-2-Amino-N-(3′-(diethylamino)-3H-spiro[isobenzofuran-1,9′-xanthen]-6′-yl)-4-methylpentanamide] | 74.1% | ~0.741 µM | – | – |
| COc1ccc2c(c1)Oc1cc(NC(=O)[C@@H](N)CC(C)C)ccc1C21OCc2ccccc21 (stereo partly drawn) [Probe 8, (2S)-2-Amino-N-(3′-methoxy-3H-spiro[isobenzofuran-1,9′-xanthen]-6′-yl)-4-methylpentanamide] | 93.9% | ~0.939 µM | faster kinetics than those of the corresponding P2 and P3 probes | – |
| CCN(CC)c1ccc2c(c1)Oc1cc(NC(=O)OCc3ccc(NC(=O)[C@@H](N)CC(C)C)cc3)ccc1C21OCc2ccccc21 (stereo partly drawn) [Probe 9, 4-((S)-2-Amino-4-methylpentanamido)benzyl (3′-(diethylamino)-3H-spiro[isobenzofuran-1,9′-xanthen]-6′-yl)carbamate] | 32.8% | ~0.328 µM | – | – |
| COc1ccc2c(c1)Oc1cc(NC(=O)OCc3ccc(NC(=O)[C@@H](N)CC(C)C)cc3)ccc1C21OCc2ccccc21 (stereo partly drawn) [Probe 10, 4-((S)-2-Amino-4-methylpentanamido)benzyl (3′-methoxy-3H-spiro[isobenzofuran-1,9′-xanthen]-6′-yl)carbamate] | 67.6% | ~0.676 µM | – | – |
| CCN(CC)c1ccc2c(c1)Oc1cc(OCc3ccc(NC(=O)[C@@H](N)CC(C)C)cc3)ccc1C21OCc2ccccc21 (stereo partly drawn) [Probe 11, (2S)-2-Amino-N-(4-(((3′-(diethylamino)-3H-spiro[isobenzofuran-1,9′-xanthen]-6′-yl)oxy)methyl)phenyl)-4-methylpentanamide] | 29.8% | ~0.298 µM | notably slower kinetics | LAP response / fluorophore release (in words) [1]: lower responses |
| COc1ccc2c(c1)Oc1cc(OCc3ccc(NC(=O)[C@@H](N)CC(C)C)cc3)ccc1C21OCc2ccccc21 (stereo partly drawn) [Probe 12, (2S)-2-Amino-N-(4-(((3′-methoxy-3H-spiro[isobenzofuran-1,9′-xanthen]-6′-yl)oxy)methyl)phenyl)-4-methylpentanamide] | 73.6% | ~0.736 µM | – | – |
